Where “and” joins values, the source holds several entries; their conditions need not be identical. Equal values may be shown once. Inconclusive results and toxic doses are left out.
Test system: L1210 leukemia ip in BDF1 mice, survival T/C
Test: NCI In Vivo Anticancer Drug Screen. Data for tumor model L1210 Leukemia (intraperitoneal) in B6D2F1 (BDF1) mice
Conditions: endpoint: mean survival time, higher = longer survival
Outline: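 Each compound was tested against a transplantable tumor grown in mice. The endpoint was survival, with treated animals benchmarked against vehicle controls as a simple ratio.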

[1] = dose: 100.0 mg/kg/injection, schedule: Q01DX001 (ip), vehicle: saline
[2] = dose: 200.0 mg/kg/injection, schedule: Q01DX001 (ip), vehicle: saline
[3] = dose: 100.0 mg/kg/injection, schedule: Q04DX003 (ip), vehicle: saline
[4] = dose: 100.0 mg/kg/injection, schedule: Q01DX009 (ip), vehicle: Klucel (hydroxypropylcellulose) (HPC)
[5] = dose: 200.0 mg/kg/injection, schedule: Q01DX009 (ip), vehicle: Klucel (hydroxypropylcellulose) (HPC)
[6] = dose: 400.0 mg/kg/injection, schedule: Q01DX009 (ip), vehicle: Klucel (hydroxypropylcellulose) (HPC)
[7] = dose: 400.0 mg/kg/injection, schedule: Q01DX001 (ip), vehicle: saline
[8] = dose: 100.0 mg/kg/injection, schedule: Q04DX002 (ip), vehicle: Klucel (hydroxypropylcellulose) (HPC)
[9] = dose: 200.0 mg/kg/injection, schedule: Q04DX002 (ip), vehicle: Klucel (hydroxypropylcellulose) (HPC)
[10] = dose: 400.0 mg/kg/injection, schedule: Q04DX002 (ip), vehicle: Klucel (hydroxypropylcellulose) (HPC)
[11] = dose: 100.0 mg/kg/injection, schedule: Q04DX003 (ip), vehicle: saline with Tween-80
[12] = dose: 200.0 mg/kg/injection, schedule: Q04DX003 (ip), vehicle: saline
[13] = dose: 400.0 mg/kg/injection, schedule: Q04DX003 (ip), vehicle: saline

O=[N+]([O-])c1ccc2nc(=S)[nH]n2c1
T/C (dose: 100.0 mg/kg/injection, schedule: Q01DX001 (ip), vehicle: acetone): 97 % of control
T/C (dose: 200.0 mg/kg/injection, schedule: Q01DX001 (ip), vehicle: acetone): 93 % of control
T/C (dose: 400.0 mg/kg/injection, schedule: Q01DX001 (ip), vehicle: acetone): 98 % of control

NCC(=O)c1ccc(Cl)cc1
T/C [1]: 102 % of control
T/C [2]: 104 % of control

O=C(Oc1ccccc1)C(O)CO (stereo not given)
T/C (dose: 100.0 mg/kg/injection, schedule: Q01DX009 (ip), vehicle: saline with Tween-80): 92 % of control
T/C (dose: 200.0 mg/kg/injection, schedule: Q01DX009 (ip), vehicle: saline with Tween-80): 96 % of control
T/C (dose: 400.0 mg/kg/injection, schedule: Q01DX009 (ip), vehicle: saline with Tween-80): 93 % of control

CN(N)C=O
T/C (dose: 75.0 mg/kg/injection, schedule: Q01DX001 (ip), vehicle: saline): 100 % of control
T/C [3]: 108 % of control
T/C (dose: 150.0 mg/kg/injection, schedule: Q01DX001 (ip), vehicle: saline): 96 % of control
T/C (dose: 300.0 mg/kg/injection, schedule: Q01DX001 (ip), vehicle: saline): 98 % of control

CCOC(=O)c1[nH]c(C)c(C(=O)OCc2ccccc2)c1CCC(=O)O
T/C (dose: 75.0 mg/kg/injection, schedule: Q01DX001 (ip), vehicle: saline with Tween-80): 92 % of control
T/C (dose: 150.0 mg/kg/injection, schedule: Q01DX001 (ip), vehicle: saline with Tween-80): 97 % of control
T/C (dose: 300.0 mg/kg/injection, schedule: Q01DX001 (ip), vehicle: saline with Tween-80): 100 % of control

C=CCN1C(=O)c2ccccc2C1=O
T/C [4]: 100 % of control
T/C (dose: 100.0 mg/kg/injection, schedule: Q04DX003 (ip), vehicle: Klucel (hydroxypropylcellulose) (HPC)): 95 % of control
T/C [5]: 100 % of control
T/C (dose: 200.0 mg/kg/injection, schedule: Q04DX003 (ip), vehicle: Klucel (hydroxypropylcellulose) (HPC)): 95 % of control
T/C [6]: 91 % of control
T/C (dose: 400.0 mg/kg/injection, schedule: Q04DX003 (ip), vehicle: Klucel (hydroxypropylcellulose) (HPC)): 92 % of control

C1CCN(CCCCN2CCCCC2)CC1
T/C [1]: 96 % of control
T/C [2]: 104 % of control
T/C [7]: 108 % of control

Cn1cccc1/C=N/NC(N)=O
T/C [8]: 104 % of control
T/C [9]: 104 % of control
T/C [10]: 98 % of control

CC(=O)Nc1ccc2scnc2c1
T/C [11]: 112 % of control
T/C (dose: 200.0 mg/kg/injection, schedule: Q04DX003 (ip), vehicle: saline with Tween-80): 112 % of control
T/C (dose: 400.0 mg/kg/injection, schedule: Q04DX003 (ip), vehicle: saline with Tween-80): 105 % of control

CCCCCCCCCCCCCCCC(=O)O[C@@]12C[C@@H](C)[C@@]3(O)[C@@H](C=C(CO)C[C@]4(O)C(=O)C(C)=C[C@@H]34)[C@@H]1C2(C)C
T/C (dose: 0.06 mg/kg/injection, schedule: Q01DX009 (ip), vehicle: saline): 97 % of control
T/C (dose: 0.13 mg/kg/injection, schedule: Q01DX009 (ip), vehicle: saline): 107 % of control
T/C (dose: 0.25 mg/kg/injection, schedule: Q01DX009 (ip), vehicle: saline): 95 % of control
T/C (dose: 0.5 mg/kg/injection, schedule: Q01DX009 (ip), vehicle: saline): 101 % of control

CCCCN=C(C(=O)NCCCC)c1ccccc1NC(C)=O
T/C [4]: 97 % of control
T/C [5]: 86 % of control

Cc1cc(=O)c2cc(Cc3ccc(N)cc3)ccc2[nH]1
T/C [1]: 101 % of control
T/C [2]: 108 % of control

COc1ccc(CCN(CC(=O)O)S(=O)(=O)c2ccc(C)cc2)cc1OC
T/C [1]: 91 % of control
T/C [2]: 100 % of control
T/C [7]: 100 % of control

CC12CC/C(=N/NC(=O)Cc3c[nH]c4ccccc34)CC1CCC1C2CCC2(C)C(OC(=O)c3ccccc3)CCC12 (stereo not given)
T/C (dose: 100.0 mg/kg/injection, schedule: Q01DX001 (sc), vehicle: steriod suspending solution): 101 % of control
T/C (dose: 100.0 mg/kg/injection, schedule: Q01DX009 (sc), vehicle: steriod suspending solution): 104 % of control
T/C (dose: 200.0 mg/kg/injection, schedule: Q01DX001 (sc), vehicle: steriod suspending solution): 100 % of control
T/C (dose: 200.0 mg/kg/injection, schedule: Q01DX009 (sc), vehicle: steriod suspending solution): 104 % of control
T/C (dose: 400.0 mg/kg/injection, schedule: Q01DX001 (sc), vehicle: steriod suspending solution): 111 % of control
T/C (dose: 400.0 mg/kg/injection, schedule: Q01DX009 (sc), vehicle: steriod suspending solution): 102 % of control

CCOC(=O)CC(C(=O)OCC)C(OCC)OCC (stereo not given)
T/C [3]: 104 % of control
T/C [12]: 106 % of control
T/C [13]: 111 % of control

O=S(=O)(/C=C\c1ccccc1)N1CCCc2ccccc21
T/C [1]: 106 % of control
T/C [3]: 98 % of control
T/C [2]: 98 % of control
T/C [12]: 102 % of control
T/C [7]: 101 % of control
T/C [13]: 98 % of control

CC1CCCC(CN=Cc2ccccc2O)[N-]1.CC1CCCC(CN=Cc2ccccc2O)[N-]1.[Ni+2] (stereo not given)
T/C [11]: 98 % of control

COc1ccccc1N(N=O)C(=O)CC(C)=O
T/C [1]: 101 % of control
T/C [2]: 101 % of control
T/C [7]: 101 % of control

CCCCOC(=O)c1ccccc1C(=O)OC1CCCCC1
T/C (dose: 75.0 mg/kg/injection, schedule: Q01DX001 (ip), vehicle: Klucel (hydroxypropylcellulose) (HPC)): 115 % of control
T/C (dose: 150.0 mg/kg/injection, schedule: Q01DX001 (ip), vehicle: Klucel (hydroxypropylcellulose) (HPC)): 103 % of control
T/C (dose: 300.0 mg/kg/injection, schedule: Q01DX001 (ip), vehicle: Klucel (hydroxypropylcellulose) (HPC)): 100 % of control

O=C1OC2(CCN(Cc3ccccc3)CC2)C(=O)N1c1cccc(Cl)c1
T/C (dose: 100.0 mg/kg/injection, schedule: Q01DX001 (ip), vehicle: carboxymethylcellulose (CMC)): 92 % of control
T/C (dose: 200.0 mg/kg/injection, schedule: Q01DX001 (ip), vehicle: carboxymethylcellulose (CMC)): 106 % of control
T/C (dose: 400.0 mg/kg/injection, schedule: Q01DX001 (ip), vehicle: carboxymethylcellulose (CMC)): 97 % of control

COc1ccc(Cl)cc1NC(=O)Nc1cccc(C(C)=O)c1
T/C [4]: 102 % of control
T/C [5]: 93 % of control
T/C [6]: 90 % of control

Cc1nc(N)[nH]c(=O)c1CCCNS(=O)(=O)c1ccc(CN)cc1
T/C [1]: 115 % of control
T/C [2]: 98 % of control
T/C [7]: 101 % of control

O=Cc1cc(Cl)ccc1O
T/C [4]: 108 % of control
T/C [5]: 102 % of control

C[S+](C)c1ccccc1C(C)(C)CC(=O)O
T/C [1]: 103 % of control
T/C [2]: 98 % of control
T/C [7]: 110 % of control

CCOC(=O)C1(NC(=O)N(CCCl)N=O)CCCC1
T/C (dose: 16.0 mg/kg/injection, schedule: Q01DX001 (ip), vehicle: other): 105 % of control
T/C (dose: 31.0 mg/kg/injection, schedule: Q01DX001 (ip), vehicle: other): 110 % of control
T/C (dose: 108.0 mg/kg/injection, schedule: Q01DX001 (ip), vehicle: other): 178 % of control
T/C (dose: 110.0 mg/kg/injection, schedule: Q01DX001 (ip), vehicle: other): 185 % of control
T/C (dose: 125.0 mg/kg/injection, schedule: Q01DX001 (ip), vehicle: other): 217 % of control
T/C (dose: 165.0 mg/kg/injection, schedule: Q01DX001 (ip), vehicle: other): 236 % of control
T/C (dose: 168.0 mg/kg/injection, schedule: Q01DX001 (ip), vehicle: other): 262 % of control
T/C (dose: 247.0 mg/kg/injection, schedule: Q01DX001 (ip), vehicle: other): 272 % of control
T/C (dose: 250.0 mg/kg/injection, schedule: Q01DX001 (ip), vehicle: other): 278 % of control and 314 % of control
T/C (dose: 370.0 mg/kg/injection, schedule: Q01DX001 (ip), vehicle: other): 250 % of control
T/C (dose: 375.0 mg/kg/injection, schedule: Q01DX001 (ip), vehicle: other): 115 % of control
T/C (dose: 555.0 mg/kg/injection, schedule: Q01DX001 (ip), vehicle: other): 94 % of control

C/C=C/C(=O)Nc1ccc(CC)cc1
T/C [4]: 95 % of control
T/C [5]: 92 % of control

C#CC(OC(=O)NC(C(=O)OC)C(C)C)(c1ccccc1)c1ccccc1 (stereo not given)
T/C (dose: 50.0 mg/kg/injection, schedule: Q04DX002 (ip), vehicle: saline with Tween-80): 100 % of control
T/C (dose: 100.0 mg/kg/injection, schedule: Q04DX002 (ip), vehicle: saline with Tween-80): 105 % of control and 114 % of control
T/C (dose: 200.0 mg/kg/injection, schedule: Q04DX002 (ip), vehicle: saline with Tween-80): 122 % of control

COc1cccc(NC(=S)NC(=O)c2ccccc2)c1
T/C [8]: 110 % of control
T/C [9]: 92 % of control
T/C [10]: 103 % of control

COc1ccc(C2(OC(=O)c3ccc([N+](=O)[O-])cc3)C3C=CC2CC3)cc1 (stereo not given)
T/C [8]: 87 % of control
T/C [9]: 107 % of control
T/C [10]: 90 % of control
